By melting point is commonly meant the temperature of the solid-liquid transition. With `Oc1ccc(N=C2SCS2)cc1`, the melting point was in the range of 162 to 163 °C.
In the case of `CC1(C)Cc2cc(OCC(=O)O)c(Cl)c(Cl)c2C1=O` it was 182 °C; in that of `O=C1CCC(c2ccc3[nH]c(-c4cccnc4)cc3c2)=NN1`, 298 to 300 °C.
Under `CCC#C[C@]1(C(F)(F)F)O[C@@H](c2ccccc2)C(=O)Nc2ccc(Cl)cc21` (relative stereo) stands 198 to 199 °C; under `Cc1cc([N+](=O)[O-])c(Cl)c([N+](=O)[O-])c1S(N)(=O)=O`, 205 to 215 °C; under `CC(=O)c1cnc(N)c(Cl)c1`, 188 °C.
In the case of `Nc1cc(C=C2OC(=O)c3ccccc32)ccc1Cl` it was 148 to 153 °C.
With `N#Cc1cc2c3ccccc3[nH]c(=O)n2n1`, the melting point lay within 302 to 304 °C.
In the case of `CCS(=O)(=O)c1cnc(Cl)c(Cl)c1` it was 141 to 142 °C.
Under `CC(OC(=O)c1ccccc1)P(=O)(O)OC(CCCCN)C(=O)N1CCCC1C(=O)O` (stereo unspecified) stands 186 to 192 °C; under `COc1ccccc1COc1ccc(S(=O)(=O)c2ccc(C)nc2Nc2ccc(S(C)(=O)=O)cc2Cl)cc1`, 100 to 102 °C.
Regarding `CS(=O)(=O)NCc1ccc2[nH]cc(CC#N)c2c1`, the melting point fell in the range of 106 to 109 °C.
Under `CC1=C(C#N)C(=C(C#N)C#N)OC1(C)C` stands 203 °C.
Under `CCC(CCN=C(O)C(Br)=C(Br)C(=O)O)c1ccccc1` (stereo unspecified) stands 71 to 73 °C; under `CCc1ccc2c(c1)C=Cc1cc(C)ccc1C2c1cn(-c2ccnc(N(C)CC(=O)Nc3nc(CC(=O)O)cs3)n2)c(=O)[nH]c1=O` (stereo unspecified), 188 °C; under `Cc1ccc2cc(-c3ccc4ccc5cccc6ccc3c4c56)ccc2n1`, 133 °C.
For `COc1cnc(N2CCN(c3ccc(N)cc3)CC2)nc1`, the melting point was determined as 125 °C.
The molecule `CC(C)CC(=O)NC(=O)c1nnn(Cc2ccccc2)c1N` yielded a melting point of 138 to 150 °C.
Molecule `CC(C)(C)OC(=O)NCc1ccc(CC(=O)O)cc1` yielded a melting point of 89 to 91 °C.
Under `O=S(=O)(c1ccccc1)c1c[nH]c2cccc(Br)c12` stands 202 to 207 °C.
In the case of `CCOC(=O)C=CN1CCCC1` it was 37.5 to 39.5 °C; in that of `COn1cnc2c(N)nc3ccccc3c21`, 238 to 240 °C.
In the case of `COC(=O)C1=C(C)Nc2ccnc(OC(C)C)c2C1c1c(Cl)cccc1Cl` (stereo unspecified) it was 245 °C; in that of `Nc1ccc2cccc(Oc3cc(-c4ccc(C(F)(F)F)cc4)ccn3)c2n1`, 196 to 200 °C; in that of `CC(CN(C(C)C)C(C)C)N1C(=O)C(=O)c2ccccc21` (stereo unspecified), 70 to 71 °C.
`COC(=O)C1=Cc2cc(Br)cnc2N2CCCC2CC1` (stereo unspecified): the melting point was in the range of 98 to 99 °C.
Take `CCOC(=O)COc1cc(C(=O)OC)on1`: the melting point was 66 to 67 °C.
For the molecule `CC(C)(C#N)c1cc(CSc2ccc(O)c(Cl)c2)cc(Cn2cncn2)c1`, the melting point worked out at 131 °C.
`CCCCCC(=O)c1ncc(S(N)(=O)=O)s1` showed a melting point of 124 to 125 °C.
In the case of `O=C(O)Cc1ccc(CCNS(=O)(=O)c2ccc3ccccc3c2)cc1`, the melting point lay in the range of 135 to 136 °C.
Turning to `COc1ccc(-c2c3c(cc4ccc(OC)cc24)C(=O)NC3=O)cc1`, the melting point fell in the range of 290 to 292 °C.
Under `O=S(=O)(CCc1ccc(-c2ccccc2)cc1)N1CC(CN2CCCC2)Cc2ccccc21` (stereo unspecified) stands 107 to 110 °C; under `CC(N1CCN(c2ncn(Cc3ccc(C(C)(C)C)cc3)n2)CC1)C(O)(Cn1cncn1)c1ccc(F)cc1F` (stereo unspecified), 84 to 86 °C.
`C[C@@H](NC(=O)c1c[nH]c2ncc(-c3nn(C)c4cc(Cl)ccc34)nc12)C(=O)N1CC[C@H](F)C1` returned a melting point of 269 to 271 °C.
In the case of `COC(=O)CCNc1ccccc1CNC(=O)C1Cc2ccccc2N1S(=O)(=O)c1ccc(-c2ccc(F)cc2Cl)cc1` (stereo unspecified) it was 70 to 73 °C.
For `CCc1cc2c(-c3ccccc3Cl)c(C(=O)O)c(=O)n(C)c2s1`, the melting point lay within 155 to 156 °C.

The values above are taken from a melting point compilation (Tetko et al.; mined from patent text by program, amines drawn as free bases though some values may be those of a salt).
